According to ChEMBL document CHEMBL1777709, “Asymmetric synthesis and biological evaluations of (+)- and (-)-6-dimethoxymethyl-1,4-dihydropyridine-3-carboxylic acid derivatives blocking N-type calcium channels” (Bioorg Med Chem Lett, 2011):

How the values were obtained:
[1] = Inhibition of Voltage-dependent N-type calcium channel- mediated calcium influx in human IMR-32 cells; type: cell-based
[2] = target: Voltage-gated L-type calcium channel (Rattus norvegicus, UniProt P22002+Q02485+P27732); assay: Inhibition of Voltage-dependent L-type calcium channel in rat thoracic aorta ring; type: tissue-based
Rattus norvegicus = assay: Ratio of inhibition of L-type calcium channel to inhibition of N-type calcium channel in rat hypertension model at 3 ug/ml, iv; type: functional

Compound	IC50 ([1]; Homo sapiens, IMR-32) [µM]	IC50 ([1]; imr-32) [µM]	IC50 [2] [µM]	Ratio (Rattus norvegicus)
COC(OC)C1=C(C(=O)OC/C=C/c2ccccc2)C(c2cccc(Cl)c2)C(C(=O)O)=C(C)N1 (racemic)	3			
CC1=C(C(=O)O)C(c2cccc([N+](=O)[O-])c2)C(C(=O)OC/C=C/c2ccccc2)=C(C)N1 (racemic)	3.5			
COC(OC)C1=C(C(=O)OC/C=C/c2ccccc2)C(c2cccc(Cl)c2)C(C(=O)O)=C(C)N1 (single isomer, unassigned; (+))		2.6	13.2	
COC(OC)C1=C(C(=O)OC/C=C/c2ccccc2)C(c2cccc(Cl)c2)C(C(=O)O)=C(C)N1 (stereo in doubt; (-)-3)			1.8	
COCCOC(=O)C1=C(C)NC(C)=C(C(=O)OC/C=C/c2ccccc2)C1c1cccc([N+](=O)[O-])c1 (configuration not stated) [CILNIDIPINE]	1.6			1
